This is an account of results in patent publication US20090018118A1, “HETEROCYCLIC COMPOUNDS” (priority 2005, published 2009).

Structures are written as SMILES. Structures can show the parent of a compound that is named as a salt. Where two headings read alike, the source gives them in different places.

For this assay, the system named is cholesterol biosynthesis in HepG2 cells. Description: Metabolic labeling of HepG2 cells with [3H]acetate; radio-HPLC sterol profile (inhibition of cholesterol biosynthesis). Format: cell-based, human. Particulars: HepG2; for activity at 10 µM: Homo sapiens, 24 h, Table I, sterol level normalized to normal medium (1.00), mean of 4 experiments; for activity at 10 µM / FF-MAS / cholesterol / desmosterol / lanosterol / lathosterol / zymosterol+7-dehydrocholesterol: 10 μM compound; for FF-MAS / cholesterol / desmosterol / lanosterol / lathosterol / zymosterol+7-dehydrocholesterol: Table II (arranged by sterol profile), normalized to normal medium (1.00). The protocol: In accordance with the aims of the invention, the effect of the novel compounds on inhibition of cholesterol biosynthesis is assessed. An ex vivo method of metabolic labeling of immortal human hepatocytes is employed. The radioactively labeled early precursor of cholesterol [3H]acetate is added to cells with or without addition of an active new compound.
An ex vivo method of metabolic labeling of immortal human hepatocytes is employed. The radioactively labeled early precursor of cholesterol [3H]acetate is added to cells with or without addition of an active compound.
Cell culture incubation with potential inhibitors of cholesterol biosynthesis and statins Human hepatoma cell line (HepG2-ATCC No. HB-8065) is split in the recommended ratio (1:2-3) into 75 cm^2 cell flasks using two flasks per experimental condition. Cells are incubated at 37° C. with 5% CO2 in Dulbeco's modified Eagle medium (DMEM high (Sigma)) containing 5% calf serum (Sigma) and 1% L-glutamine (Sigma). After 24-hours-culturing in the growth medium, the medium is replaced with the one supplemented with 10 μM concentration of a LK compound, potential inhibitor of cholesterol biosynthesis. 10 μM solution of atorvastatin, inhibitor of HMG-CoA reductase, serves as a positive control.
After 24 hours the growth medium is changed and [^3H]acetate (NEN™ Life Science Products) added in a concentration of 40 μCi per ml of the medium (400 μCi per flask). After 4 hours cells are harvested using 2 ml of trypsin (Sigma) and the cell pellet is resuspended in 1 ml of distilled water. Cells are homogenized using the freeze and thaw method. From cell homogenate sterols are extracted and protein concentration determined using the Bio-Rad reagent.
Homogenates are transferred into 4 ml glass vial and sterols are extracted in 3 ml of extraction solution (75% n-heptane: 25% isopropanol (vol./vol.)) with ergosterol as an internal standard. For better extraction 100 μl of 0.3M NaH2PO4 (pH=1.0) is added. Closed vials are vigorously shaken (1800 rpm) for 2 hours. After extraction procedure vials are centrifuged (2000 g, 10 min) and the organic phase is transferred to fresh conical glass tubes. Extraction procedure is repeated using 1 ml of extraction solution for 15 min. Organic phases are pooled. Primary extracts are dried in vacuum centrifuge, redissolved in 3 ml of n-heptane, and incubated for 10 min at room temperature with mild shaking. After centrifugation (10 min, 2000 g) extracts are transferred into fresh glass tubes and stored in dark and cold.
The organic phase is dried, reconstituted in mobile phase for reversed phase HPLC separation and loaded onto a-HPLC column, Prism-RPN, 5 μm, 250×4,6 mm running in 100% acetonitrile at 1.00 ml/min at 40° C. temperature. Scintillation liquid is added after UV detection at 30 ml/h, at room temperature, to evaluate tritium labeled sterols on a radio detector.
Sterols are determined by comparing the eluted peaks with runs of commercial standards of lanosterol, ergosterol, desmosterol, zymosterol, 7-dehydrocholesterol, lathosterol and cholesterol or laboratory standards (FF-MAS-4,4-Dimethylcholesta-8(9),14,24-triene-3β-ol- and T-MAS-4,4-Dimethylcholesta8(9),24,diene-3,6-ol, Laboratory of Reproductive Biology, The Juliane Marie Center for Children, Women and Reproduction, University Hospital of Copenhagen, DK-2100 Copenhagen, Denmark). Results were normalized on ergosterol quantity and protein concentration. Results are presented as a mean from 4 separated experiments.
The influence of a 10 μM solution of novel LK-substances on cholesterol biosynthesis in the assay on HepG2 cells is presented in Table I. Compounds are arranged according to the building blocks, three of them are 2-pyridineethanols, 2-pyridineethylpiperazines and pyridinemethylpiperazines.
Normal medium pertains to cell cultures without a compound of the invention. Its sterol levels were used for normalization. 10 μM solution of atorvastatin serves as a positive control.

Where [1] appears, read: read-out: zymosterol+7-dehydrocholesterol.

The molecule `OC(CN1CCN(CCc2ccccc2)CC1)c1cccnc1` (centres unmarked) [LK-980, 2-(4-Phenethylpiperazine-1-yl)-1-(pyridine3-yl)-1-ethanol trihydrobromide] came in with an FF-MAS of 2.54, a cholesterol of 0.05, a desmosterol of 0.00 and a lanosterol of 0.96. The lathosterol came to 0.49 and the “zymosterol+7-dehydrocholesterol” value is given as 1.02. In addition, for the setting “read-out: FF-MAS”, the activity at 10 µM amounted to 254%. Moreover, the activity at 10 µM (read-out: cholesterol) worked out at 5%. Moreover, the activity at 10 µM (read-out: desmosterol) stood at 0%. The activity at 10 µM (read-out: lanosterol) turned out to be 96%. Where the note is “read-out: lathosterol”, the activity at 10 µM was 49%. Also, the activity at 10 µM under setting [1] is 102%.

In turn, `c1ccc(CCN2CCN(CCc3cccnc3)CC2)cc1` [LK-9100, 1-Phenethyl-4-(2-(pyridine-3-yl)ethyl)piperazine trihydrobromide] showed an FF-MAS of 2.41, a cholesterol of 0.00, a desmosterol of 0.00 and a lanosterol of 0.83. Also, the lathosterol was found to be 0.30 and the “zymosterol+7-dehydrocholesterol” value was found to be 0.74. For the same molecule, the activity at 10 µM (read-out: FF-MAS) was 241%. Moreover, where the note is “read-out: cholesterol”, the activity at 10 µM came to 0%. The activity at 10 µM (read-out: desmosterol) stood at 0%. For the same molecule, under “read-out: lanosterol”, the activity at 10 µM came out at 83%. Moreover, for the setting “read-out: lathosterol”, the activity at 10 µM amounted to 30%. The activity at 10 µM under setting [1] came out at 74%.

On to `O=C(Cc1cccnc1)N1CCN(CCc2ccccc2)CC1` [LK-9101B, 1-(4-Phenethylpiperazin-1-yl)-2-(pyridine-3-yl)ethanone], for which the FF-MAS amounted to 1.36, the cholesterol is given as 0.12, the desmosterol amounted to 0.10 and the lanosterol is reported as 0.94. The lathosterol was determined as 0.54 and the “zymosterol+7-dehydrocholesterol” value is given as 1.55. Moreover, the activity at 10 µM (read-out: FF-MAS) stood at 136%. For the same molecule, for the setting “read-out: cholesterol”, the activity at 10 µM turned out to be 12%. The activity at 10 µM (read-out: desmosterol) came out at 10%. In addition, the activity at 10 µM (read-out: lanosterol) amounted to 94%. In addition, the activity at 10 µM (read-out: lathosterol) turned out to be 54%. Further, the activity at 10 µM under setting [1] was found to be 155%.

`COc1ccc(CN2CCN(CCc3ccccc3)CC2)cn1` [LK-9106, 1-((6-Methoxypyridin-3-yl)methyl)-4-phenethylpiperazine trihydrobromide] had an FF-MAS of 2.00, a cholesterol of 0.00, a desmosterol of 0.00 and a lanosterol of 0.52. Besides, the lathosterol is 0.31 and the “zymosterol+7-dehydrocholesterol” value is reported as 0.46. Further, under “read-out: FF-MAS”, the activity at 10 µM was 200%. Further, the activity at 10 µM (read-out: cholesterol) was 0%. The activity at 10 µM (read-out: desmosterol) was determined as 0%. For the same molecule, the activity at 10 µM (read-out: lanosterol) amounted to 52%. Also, for the setting “read-out: lathosterol”, the activity at 10 µM amounted to 31%. Moreover, the activity at 10 µM under setting [1] turned out to be 46%.

Regarding `FC(F)(F)c1ccc(CN2CCN(CCc3ccccc3)CC2)cn1` [LK-9107, 1-Phenethyl-4-((6(trifluoromethyl)pyridine-3-yl)methyl)piperazine trihydrobromide], the FF-MAS was 1.29, the cholesterol stood at 0.00, the desmosterol worked out at 0.00 and the lanosterol came out at 0.36. Further, the lathosterol was determined as 0.11 and the “zymosterol+7-dehydrocholesterol” value is listed as 0.20. For the same molecule, the “sterol profile (in words)” value (10 μM, preferred profile: lowered cholesterol, no accumulation of lanosterol and post-lanosterol intermediates) was “meets these criteria in considerable extent”. Besides, the activity at 10 µM (read-out: FF-MAS) was 129%. Also, the activity at 10 µM (read-out: cholesterol) came out at 0%. For the same molecule, for the setting “read-out: desmosterol”, the activity at 10 µM amounted to 0%. Moreover, the activity at 10 µM (read-out: lanosterol) turned out to be 36%. Also, the activity at 10 µM (read-out: lathosterol) was 11%. Besides, the activity at 10 µM under setting [1] turned out to be 20%.

In turn, `c1ccc(CCN2CCN(Cc3cccnc3)CC2)cc1` [LK-9108, 1-Phenethyl-4-(pyridine-3-ylmethyl)piperazine trihydrobromide] yielded an FF-MAS of 3.10, a cholesterol of 0.00, a desmosterol of 0.00 and a lanosterol of 1.10. The lathosterol was 0.74 and the “zymosterol+7-dehydrocholesterol” value turned out to be 1.40. For the same molecule, the activity at 10 µM (read-out: FF-MAS) was 310%. Besides, the activity at 10 µM (read-out: cholesterol) turned out to be 0%. Moreover, for the setting “read-out: desmosterol”, the activity at 10 µM was determined as 0%. For the same molecule, the activity at 10 µM (read-out: lanosterol) turned out to be 110%. Moreover, the activity at 10 µM (read-out: lathosterol) stood at 74%. Also, the activity at 10 µM under setting [1] was found to be 140%.

In turn, `c1ccc(CCN2CCN(Cc3ccc(N4CCOCC4)nc3)CC2)cc1` [LK-9109B, 4-(5-((4-Phenethylpiperazin-1-yl)methyl)pyridine-2-yl)morpholine] came in with an FF-MAS of 6.50, a cholesterol of 0.00, a desmosterol of 0.29 and a lanosterol of 0.95. Also, the lathosterol is recorded as 0.09 and the “zymosterol+7-dehydrocholesterol” value came out at 1.00. For the setting “10 μM”, the “FF-MAS accumulation (in words)” value is on record as “notably accumulate FF-MAS”. For the same molecule, the activity at 10 µM (read-out: FF-MAS) was determined as 650%. The activity at 10 µM (read-out: cholesterol) worked out at 0%. The activity at 10 µM (read-out: desmosterol) was 29%. In addition, the activity at 10 µM (read-out: lanosterol) was 95%. Moreover, the activity at 10 µM (read-out: lathosterol) came to 9%. For the same molecule, the activity at 10 µM under setting [1] was determined as 100%.

In turn, `OC(CN1CCN(CCc2ccccc2)CC1)c1ccncc1` (centres unmarked) [LK-9110B, 2-(4-Phenethylpiperazine-1-yl)-1-(pyridine-4-yl)ethanol] yielded an FF-MAS of 3.74, a cholesterol of 0.00, a desmosterol of 0.17 and a lanosterol of 0.96. Moreover, the lathosterol is reported as 0.78 and the “zymosterol+7-dehydrocholesterol” value was 1.37. The activity at 10 µM (read-out: FF-MAS) was 374%. The activity at 10 µM (read-out: cholesterol) was determined as 0%. Where the note is “read-out: desmosterol”, the activity at 10 µM came out at 17%. Besides, the activity at 10 µM (read-out: lanosterol) came out at 96%. In addition, the activity at 10 µM (read-out: lathosterol) amounted to 78%. Further, the activity at 10 µM under setting [1] is 137%.

Molecule `FC(F)(F)c1cnc(N2CCCN(CCc3ccccc3)CC2)c(Cl)c1` [LK-9115, 1-(3-Chloro-5-(trifluoromethyl)pyridine-2-yl)-4-phenethyl-1,4-diazepane trihydrobromide] had an FF-MAS of 4.42, a cholesterol of 0.00, a desmosterol of 0.00 and a lanosterol of 0.84. Also, the lathosterol is listed as 0.21 and the “zymosterol+7-dehydrocholesterol” value worked out at 0.91. Moreover, the activity at 10 µM (read-out: FF-MAS) was found to be 442%. In addition, under “read-out: cholesterol”, the activity at 10 µM came out at 0%. Under “read-out: desmosterol”, the activity at 10 µM is 0%. In addition, the activity at 10 µM (read-out: lanosterol) came to 84%. The activity at 10 µM (read-out: lathosterol) turned out to be 21%. Further, under setting [1], the activity at 10 µM came to 91%.
